Measurements taken from patent US20060193804A1, “Haircare use of cyclic amine derivatives” (L'OREAL, priority 2005, published 2006).

Tested on: human striated muscle cells innervated with explants of rat embryonic spinal ganglia and spinal cord
Assay: nerve/muscle coculture model: frequency of muscle fiber contractions
Assay type: cell-based
Settings: for inhibition at 10 µM: Homo sapiens, concentration of 10^−5 M, contractions counted over 30 seconds after incubation for 60 seconds, read-out: inhibition of the frequency of contraction of the muscle fibers
Protocol: Compounds 1 and 2 were tested at a given concentration, on a model of nerve/muscle coculture, which makes it possible to recreate a motor arc by innervating human striated muscle cells with explants of rat embryonic spinal ganglia and spinal cord.
This test is predictive of an inhibitory effect on muscle fiber contractions.
The protocol adopted is as follows:
Human myoblasts (primary culture of human muscle cells, M1b) were inoculated in 24-well plates. The culture medium is a mixture of ⅔ MEM (Invitrogen 21090-022), ⅓ M199 (Invitrogen 31153-026) and 5% FCS. At confluence, spinal cord explants from 13-day-old rat embryos are placed on the primary culture. The first contractions of the muscle fibers are observed after one week of coculture. After three weeks, these muscle fibers are striated and have mature differentiated neuromuscular junctions.
The products are tested in triplicate (3 fibers analysed) at two concentrations. For each culture well, a muscle fiber having regular contractions (>60 contractions per minute) is selected and the number of contractions is counted over 30 seconds. The test product is then added to the culture medium under a microscope without moving the microscope stage. After incubation for 60 seconds, the number of contractions is again counted over 30 seconds. The whole experiment is recorded using a digital camera. The videos are saved on an electronic medium.

Row | SMILES | inhibition at 10 µM [%] | dose-response effect on contraction of the muscle fibers
1 | c1ccc(CCCC2CCN(CCCc3ccccc3)CC2)cc1 [Compound 2] | ~55 | –
2 | c1ccc(CCCCN2CCC(c3ccccc3)CC2)cc1 [Compound 1] | 50 | induces a dose-response effect
